Results as given in ChEMBL document CHEMBL1156087, “Antioxidant reactivity toward nitroxide probes anchored into human serum albumin. A new model for studying antioxidant repairing capacity of protein radicals” (Bioorg Med Chem Lett, 2009).

Key:
Settings in all cases: isolated protein; call rule not given here
Albumin [1] = target: T1, Albumin (Homo sapiens, UniProt P02768); test: Binding affinity to human serum albumin by tryptophan fluorescence quenching method; format: ADME
Albumin [2] = target: T1, Albumin; test: Binding affinity to human serum albumin intensity at 5 uM by fluorescence based drug displacement assay in presence of dansyl sarcosine
Albumin [3] = target: T1, Albumin; test: Binding affinity to human serum albumin by Benesi-Hildebrand method; format: ADME
Albumin [4] = target: T1, Albumin; test: Binding affinity to 130 uM human serum albumin assessed as fluorescence distribution at 2.5 uM; format: ADME
Albumin [5] = target: T1, Albumin; test: Binding affinity to human serum albumin intensity at 5 uM by fluorescence based drug displacement assay in presence of dansyl amide
Albumin [6] = target: T1, Albumin; test: Binding affinity to 15 uM human serum albumin assessed as fluorescence distribution at 2.5 uM; format: ADME
Albumin [7] = target: T1, Albumin; test: Binding affinity to 45 uM human serum albumin assessed as fluorescence distribution at 2.5 uM; format: ADME

T1 sequence (P02768 whole entry): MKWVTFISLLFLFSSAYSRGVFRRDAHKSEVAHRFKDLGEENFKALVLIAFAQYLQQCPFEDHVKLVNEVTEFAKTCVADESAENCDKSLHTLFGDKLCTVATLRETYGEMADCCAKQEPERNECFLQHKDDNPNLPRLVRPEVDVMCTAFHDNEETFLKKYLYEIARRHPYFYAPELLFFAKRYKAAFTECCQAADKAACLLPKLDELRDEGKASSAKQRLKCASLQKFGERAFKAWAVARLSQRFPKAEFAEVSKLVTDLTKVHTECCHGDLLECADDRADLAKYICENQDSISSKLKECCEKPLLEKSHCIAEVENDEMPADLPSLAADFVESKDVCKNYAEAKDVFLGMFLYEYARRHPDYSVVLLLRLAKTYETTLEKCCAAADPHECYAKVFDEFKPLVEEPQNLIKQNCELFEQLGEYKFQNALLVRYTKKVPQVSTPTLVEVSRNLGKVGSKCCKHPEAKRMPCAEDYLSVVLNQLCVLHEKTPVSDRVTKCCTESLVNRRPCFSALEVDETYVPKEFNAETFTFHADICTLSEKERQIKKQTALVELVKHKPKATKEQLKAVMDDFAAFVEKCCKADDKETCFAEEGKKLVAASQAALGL

SMILES	Ka (Albumin [1]) [×10⁴ /M]	Activity (Albumin [2])	Ka (Albumin [3]) [×10⁴ /M]	Activity (Albumin [4]) [%]	Activity (Albumin [5])	Activity (Albumin [6]) [%]	Activity (Albumin [7]) [%]
Cc1nc2ccccc2c(C(=O)OC2CC(C)(C)N(O)C(C)(C)C2)c1O	9	–	–	–	–	–	–
CC1(C)CC(OC(=O)c2cc3cc4c5c(c3oc2=O)CCCN5CCC4)CC(C)(C)N1O	5	Not Active	4.8	44.6	Active	2.9	28.1
